Data taken from ChEMBL document CHEMBL1151492, “elastase inhibitors containing conformationally restricted lactams as P3-P2 dipeptide replacements” (Bioorg Med Chem Lett, 1993).
Where “and” joins values, the source holds several entries; their conditions need not be identical. Identical values can stand only once.

Legend:
Neutrophil elastase = target: T1, Neutrophil elastase (Homo sapiens, UniProt P08246); experiment: In vitro inhibitory activity against human leukocyte elastase
T1 sequence (P08246 whole entry): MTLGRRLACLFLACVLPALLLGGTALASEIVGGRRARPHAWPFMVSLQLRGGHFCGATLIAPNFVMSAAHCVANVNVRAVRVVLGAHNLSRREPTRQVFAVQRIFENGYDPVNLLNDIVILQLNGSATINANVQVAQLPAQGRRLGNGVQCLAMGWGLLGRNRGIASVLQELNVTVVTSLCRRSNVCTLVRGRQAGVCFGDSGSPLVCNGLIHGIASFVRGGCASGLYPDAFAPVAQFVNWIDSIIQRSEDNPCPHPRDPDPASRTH

Cricetinae gen. sp. = experiment: Effective dose required to inhibit elastase induced pulmonary hemorrhage (EPH) lung model in hamsters; assay type: functional, Cricetulus griseus

Row | IC50 (Neutrophil elastase) | SMILES | ED50 (Cricetinae gen. sp.)
1 | > 5 µM | CC(C)C(NC(=O)CN1CCC[C@H](NC(=O)c2ccc(C(=O)NS(=O)(=O)c3ccc(Cl)cc3)cc2)C1=O)C(=O)C(F)(F)F (stereo not given in full) | 
2 | > 5 µM | CC(C)C(NC(=O)CN1CC[C@H](NC(=O)c2ccc(C(=O)NS(=O)(=O)c3ccc(Cl)cc3)cc2)C1=O)C(=O)C(F)(F)F (stereo not given in full) | 
3 | > 5 µM | CC(C)C(NC(=O)CN1CCCC[C@H](NC(=O)c2ccc(C(=O)NS(=O)(=O)c3ccc(Cl)cc3)cc2)C1=O)C(=O)C(F)(F)F (stereo not given in full) | 
4 |  | CC(C)C(NC(=O)CN(C(=O)[C@@H](NC(=O)c1ccc(C(=O)NS(=O)(=O)c2ccc(Cl)cc2)cc1)C(C)C)C1Cc2ccccc2C1)C(=O)C(F)(F)F (stereo not given in full) | 4.8 µM
5 | 6.8 µM and 6.2 µM | CC(C)C(NC(=O)CN1C(=O)[C@@H](NC(=O)c2ccc(C(=O)NS(=O)(=O)c3ccc(Cl)cc3)cc2)C[S+]([O-])c2ccccc21)C(=O)C(F)(F)F (stereo not given in full) | 
